Tests used:
Assay in all cases: biochemical
AKT1 = AKT1 (Homo sapiens, UniProt P31749); conditions: read-out: % Inhibition at 1 μM, AKT1
CDK1/cyclin B = CDK1/cyclin B (Homo sapiens, UniProt P06493); conditions: read-out: % Inhibition at 1 μM, CDK1/cyclin B
CDK2/cyclin A = CDK2/cyclin A (Homo sapiens, UniProt P24941); conditions: read-out: % Inhibition at 1 μM, CDK2/cyclin A
CHK1 = CHK1 (Homo sapiens, UniProt O14757); conditions: read-out: % Inhibition at 1 μM, CHK1
CHK2 = CHK2 (Homo sapiens, UniProt O96017); conditions: read-out: % Inhibition at 1 μM, CHK2
NEK11 = NEK11 (Homo sapiens, UniProt Q8NG66); conditions: read-out: % Inhibition at 1 μM, NEK11
Chain of NEK11 (Q8NG66 whole entry, looked up): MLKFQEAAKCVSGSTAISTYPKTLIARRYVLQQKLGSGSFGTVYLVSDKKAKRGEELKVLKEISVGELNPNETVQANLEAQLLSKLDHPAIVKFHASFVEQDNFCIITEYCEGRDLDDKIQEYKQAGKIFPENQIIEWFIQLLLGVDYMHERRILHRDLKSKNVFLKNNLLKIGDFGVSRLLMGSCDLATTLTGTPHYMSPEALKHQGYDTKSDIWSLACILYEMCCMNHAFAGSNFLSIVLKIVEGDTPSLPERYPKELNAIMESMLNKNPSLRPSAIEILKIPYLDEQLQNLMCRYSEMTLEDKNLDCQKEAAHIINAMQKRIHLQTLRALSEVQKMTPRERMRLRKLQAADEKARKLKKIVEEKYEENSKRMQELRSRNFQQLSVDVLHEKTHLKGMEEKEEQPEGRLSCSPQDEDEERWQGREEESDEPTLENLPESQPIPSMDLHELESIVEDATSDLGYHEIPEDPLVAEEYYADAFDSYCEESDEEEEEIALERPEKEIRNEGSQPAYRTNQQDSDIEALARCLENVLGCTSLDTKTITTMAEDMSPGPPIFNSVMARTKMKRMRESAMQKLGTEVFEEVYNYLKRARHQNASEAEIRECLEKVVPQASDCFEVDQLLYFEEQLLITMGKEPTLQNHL

NEK6 = NEK6 (Homo sapiens, UniProt Q9HC98); conditions: read-out: % Inhibition at 1 μM, NEK6
PLK1 = PLK1 (Homo sapiens, UniProt P53350); conditions: read-out: % Inhibition at 1 μM, PLK1
Chain of PLK1 (P53350 whole entry): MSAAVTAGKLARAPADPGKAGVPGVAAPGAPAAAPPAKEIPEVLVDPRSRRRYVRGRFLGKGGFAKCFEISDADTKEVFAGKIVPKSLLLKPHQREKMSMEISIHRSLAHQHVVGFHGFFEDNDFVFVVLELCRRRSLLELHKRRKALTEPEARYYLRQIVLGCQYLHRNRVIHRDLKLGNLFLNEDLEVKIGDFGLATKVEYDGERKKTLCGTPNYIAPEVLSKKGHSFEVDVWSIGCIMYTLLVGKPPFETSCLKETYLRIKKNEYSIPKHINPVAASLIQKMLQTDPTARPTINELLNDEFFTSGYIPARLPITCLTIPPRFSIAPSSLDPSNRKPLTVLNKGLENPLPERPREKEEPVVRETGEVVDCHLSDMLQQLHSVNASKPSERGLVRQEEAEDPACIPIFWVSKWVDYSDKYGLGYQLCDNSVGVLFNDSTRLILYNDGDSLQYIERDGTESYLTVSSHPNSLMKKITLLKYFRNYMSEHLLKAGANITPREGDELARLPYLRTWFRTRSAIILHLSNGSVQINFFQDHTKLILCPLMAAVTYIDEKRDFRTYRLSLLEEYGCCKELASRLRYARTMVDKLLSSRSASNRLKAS

RET = RET (Homo sapiens, UniProt P07949); conditions: read-out: % Inhibition at 1 μM, RET
ROCK1 = ROCK1 (Homo sapiens, UniProt Q13464); conditions: read-out: % Inhibition at 1 μM, ROCK1
Chain of ROCK1 (Q13464 whole entry, looked up): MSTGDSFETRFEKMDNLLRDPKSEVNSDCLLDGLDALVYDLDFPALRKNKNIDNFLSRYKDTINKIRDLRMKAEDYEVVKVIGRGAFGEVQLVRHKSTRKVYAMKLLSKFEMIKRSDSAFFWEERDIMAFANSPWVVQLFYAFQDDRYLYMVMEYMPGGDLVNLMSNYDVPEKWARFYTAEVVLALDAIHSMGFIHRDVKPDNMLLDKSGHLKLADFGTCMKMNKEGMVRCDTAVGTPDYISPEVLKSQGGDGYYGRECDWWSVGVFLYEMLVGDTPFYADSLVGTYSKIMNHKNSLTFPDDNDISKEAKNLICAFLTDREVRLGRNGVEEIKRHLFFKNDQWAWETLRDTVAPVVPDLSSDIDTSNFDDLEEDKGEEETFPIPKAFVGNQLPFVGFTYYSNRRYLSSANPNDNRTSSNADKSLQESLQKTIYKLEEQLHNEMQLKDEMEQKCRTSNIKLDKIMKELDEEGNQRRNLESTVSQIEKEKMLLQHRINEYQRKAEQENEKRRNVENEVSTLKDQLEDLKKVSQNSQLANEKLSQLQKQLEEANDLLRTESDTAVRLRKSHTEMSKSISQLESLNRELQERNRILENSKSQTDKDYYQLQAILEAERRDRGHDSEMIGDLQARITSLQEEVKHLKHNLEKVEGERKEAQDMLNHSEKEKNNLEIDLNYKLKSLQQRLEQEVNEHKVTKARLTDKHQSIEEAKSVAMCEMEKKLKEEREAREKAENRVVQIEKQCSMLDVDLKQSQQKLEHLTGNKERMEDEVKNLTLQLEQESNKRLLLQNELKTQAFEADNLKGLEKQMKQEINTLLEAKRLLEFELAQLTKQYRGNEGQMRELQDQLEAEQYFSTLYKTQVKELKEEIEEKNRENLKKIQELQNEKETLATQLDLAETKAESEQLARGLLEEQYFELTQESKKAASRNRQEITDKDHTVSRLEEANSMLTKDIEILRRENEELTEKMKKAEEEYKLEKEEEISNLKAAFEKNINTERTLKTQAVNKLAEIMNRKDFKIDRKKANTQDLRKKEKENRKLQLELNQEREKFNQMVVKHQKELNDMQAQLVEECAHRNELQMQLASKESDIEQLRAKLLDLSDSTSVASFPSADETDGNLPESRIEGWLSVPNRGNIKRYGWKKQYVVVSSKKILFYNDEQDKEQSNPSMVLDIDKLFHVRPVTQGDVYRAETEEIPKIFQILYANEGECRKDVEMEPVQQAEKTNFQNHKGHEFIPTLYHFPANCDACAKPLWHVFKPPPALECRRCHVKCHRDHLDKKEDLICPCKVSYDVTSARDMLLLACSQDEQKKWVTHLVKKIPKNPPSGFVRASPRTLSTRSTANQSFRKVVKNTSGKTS

TRKA = TRKA (Homo sapiens, UniProt P04629); conditions: read-out: % Inhibition at 1 μM, TRKA
Chain of TRKA (P04629 33-796): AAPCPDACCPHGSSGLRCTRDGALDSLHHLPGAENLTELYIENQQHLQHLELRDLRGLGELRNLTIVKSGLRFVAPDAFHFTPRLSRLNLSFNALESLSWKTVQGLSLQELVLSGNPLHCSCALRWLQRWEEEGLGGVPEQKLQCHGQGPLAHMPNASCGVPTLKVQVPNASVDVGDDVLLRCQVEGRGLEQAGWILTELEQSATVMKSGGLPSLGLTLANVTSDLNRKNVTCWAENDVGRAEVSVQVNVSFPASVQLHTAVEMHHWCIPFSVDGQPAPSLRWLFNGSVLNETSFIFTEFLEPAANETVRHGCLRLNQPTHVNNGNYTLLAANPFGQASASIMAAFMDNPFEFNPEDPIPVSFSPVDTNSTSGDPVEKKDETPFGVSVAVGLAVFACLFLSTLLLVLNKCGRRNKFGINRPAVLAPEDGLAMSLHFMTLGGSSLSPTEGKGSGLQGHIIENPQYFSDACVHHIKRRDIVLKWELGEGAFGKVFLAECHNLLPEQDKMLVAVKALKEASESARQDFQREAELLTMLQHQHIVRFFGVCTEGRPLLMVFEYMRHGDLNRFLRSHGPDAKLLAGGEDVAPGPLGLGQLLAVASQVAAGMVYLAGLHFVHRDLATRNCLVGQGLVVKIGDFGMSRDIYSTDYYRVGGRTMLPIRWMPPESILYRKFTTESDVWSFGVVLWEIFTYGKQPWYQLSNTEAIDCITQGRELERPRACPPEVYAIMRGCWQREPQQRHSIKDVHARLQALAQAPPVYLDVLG

WEE1 = WEE1 (Homo sapiens, UniProt P30291); conditions: read-out: % Inhibition at 1 μM, WEE1
Chain of WEE1 (P30291 whole entry, looked up): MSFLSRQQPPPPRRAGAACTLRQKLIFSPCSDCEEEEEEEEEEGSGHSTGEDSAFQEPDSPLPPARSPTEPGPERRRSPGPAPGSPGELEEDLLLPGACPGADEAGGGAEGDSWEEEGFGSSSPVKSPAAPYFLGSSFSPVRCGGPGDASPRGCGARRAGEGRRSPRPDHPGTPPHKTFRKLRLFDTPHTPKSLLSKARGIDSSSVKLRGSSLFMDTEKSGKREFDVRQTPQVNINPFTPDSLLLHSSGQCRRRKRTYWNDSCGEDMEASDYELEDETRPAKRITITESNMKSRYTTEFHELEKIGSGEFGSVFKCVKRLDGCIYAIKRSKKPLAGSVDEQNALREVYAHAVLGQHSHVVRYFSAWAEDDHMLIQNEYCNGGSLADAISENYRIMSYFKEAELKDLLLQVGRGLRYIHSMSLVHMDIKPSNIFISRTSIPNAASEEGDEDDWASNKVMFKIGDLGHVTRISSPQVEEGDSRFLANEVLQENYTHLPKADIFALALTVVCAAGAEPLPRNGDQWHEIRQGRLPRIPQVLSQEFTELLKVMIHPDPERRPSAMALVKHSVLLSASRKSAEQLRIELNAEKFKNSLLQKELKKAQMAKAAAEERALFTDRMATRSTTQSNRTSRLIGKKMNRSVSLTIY

Chain of CHK1 (O14757 whole entry): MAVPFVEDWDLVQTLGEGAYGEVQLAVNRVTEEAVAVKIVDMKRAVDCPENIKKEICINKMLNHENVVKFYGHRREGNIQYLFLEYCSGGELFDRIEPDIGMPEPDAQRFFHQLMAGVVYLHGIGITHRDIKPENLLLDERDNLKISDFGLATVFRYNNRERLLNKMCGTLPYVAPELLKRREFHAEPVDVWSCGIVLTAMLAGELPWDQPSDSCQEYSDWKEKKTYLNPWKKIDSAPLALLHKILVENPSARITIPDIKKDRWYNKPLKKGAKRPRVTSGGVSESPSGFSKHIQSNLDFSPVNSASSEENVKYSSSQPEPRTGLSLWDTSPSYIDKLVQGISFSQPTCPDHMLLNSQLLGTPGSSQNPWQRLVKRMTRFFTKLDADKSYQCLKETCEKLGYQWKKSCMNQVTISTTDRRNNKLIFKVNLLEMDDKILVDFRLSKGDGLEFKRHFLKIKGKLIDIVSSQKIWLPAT
Chain of CDK1/cyclin B (P06493 whole entry, looked up): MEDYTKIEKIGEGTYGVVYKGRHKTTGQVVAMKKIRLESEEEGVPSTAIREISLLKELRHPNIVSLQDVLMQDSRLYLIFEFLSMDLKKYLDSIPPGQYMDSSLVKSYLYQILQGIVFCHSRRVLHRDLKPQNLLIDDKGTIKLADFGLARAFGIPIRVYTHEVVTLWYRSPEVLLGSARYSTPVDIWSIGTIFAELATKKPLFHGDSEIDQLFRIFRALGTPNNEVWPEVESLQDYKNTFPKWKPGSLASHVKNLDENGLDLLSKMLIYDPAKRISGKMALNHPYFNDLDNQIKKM

Cc1cc(Nc2cc(N3CCN(C)CC3)nc(Sc3ccc(NC(=O)C4CC4)cc3)n2)n[nH]1 [VX-680]
inhibition at 1 µM (AKT1): 3%
inhibition at 1 µM (CDK1/cyclin B): 5%
inhibition at 1 µM (CDK2/cyclin A): 7%
inhibition at 1 µM (CHK1): 16%
inhibition at 1 µM (CHK2): 4%
inhibition at 1 µM (NEK11): 11%
inhibition at 1 µM (NEK6): -5%
inhibition at 1 µM (PLK1): 0%
inhibition at 1 µM (RET): 96%
inhibition at 1 µM (ROCK1): -2%
inhibition at 1 µM (TRKA): 95%
inhibition at 1 µM (WEE1): 2%

Source: publication PMC4429609 (Journal of medicinal chemistry, 2012)
